Test results from US10933074B2, “Methods for improving the gastrointestinal tolerance of food and beverage products comprising sweet, low-digestible carbohydrates” (Tate & Lyle Ingredients Americas LLC, priority 2015, dated 2021).

System: volunteers
Parameters: species or system human
Details: in vivo
Protocol: In this Example, subjects tested 4 different beverages, consumed in the morning with at least one week washout between test days. The beverages were consumed on an empty stomach, and there was instruction for subjects to wait 2 hours before having any other food. The primary outcome was the total gastrointestinal symptom scores over 24-hours for loose stool GI symptom derived from a GI symptoms rating diary. The 4 test beverages (8 oz./236.6 ml) were flavoured with a strawberry mix and contained: 1) 25 g of D-allulose; 2) 25 g of D-allulose and 25 g of D-glucose; 3) 25 g of D-allulose and 1 g of beta-glucan fiber; or 4) 25 g of sucrose. […] On the day of the test, the subjects followed the below set of instructions: • 1. Testing start times begin when you start consuming the drink; record date and time you begin on the diary. • 2. Consume the test drink at the same time each week. • a. Consume the entire drink 8 oz. (236.6 ml) drink in under 15 minutes. • b. Refill the drink container with water and consume as a chaser. • c. You may have additional water after 60 minutes as desired. • 3. Record GI symptom scores at 2, 4 and 24-hours after starting drink consumption. • 4. You may eat a snack or breakfast 2 hours after the test drink. • 5. Record all bowel movements and the Bristol Stool type during the 24-hour observation period. • 6. Resume normal food consumption for the day; however avoid foods which you know may cause gastric upset or gas for the 24-hour observation period. […] The Bristol Stool test scores were scored from 1-7. […]

number of people reporting symptoms: greatest | stool softening (Bristol Stool test score, 24 hour average): softening effect
SMILES: O=C(CO)[C@H](O)[C@H](O)[C@H](O)CO [D-allulose]
order of softer stools: allulose>allulose+beta-glucan>allulose+D-glucose>sucrose
